Earlier results in US6784266B2, “Dual stimuli-responsive hydrogels and their synthetic methods” (Korea Institute of Science and Technology, priority 2002, dated 2004).

Details: pKa stated for the sulfonamide reagent; no measurement method described

## COc1ccc(NS(=O)(=O)c2ccc(N)cc2)nn1 [sulfamethoxypyridazine]
  pKa: 6.7
